The text below walks through data of patent US20030139331A1, “Treatment of cancer by reduction of intracellular energy and pyrimidines” (priority 2000, published 2003).

The subject of experiment [1] is first passage CD8F1 advanced spontaneous breast tumors. Description: in vivo. The source says: Table 1 evaluates Saline-treated controls (Group 1), 6-AN (Group 2) and DDP (Group 3) as single agents, and in combination (Group 4), against 1st generation subcutaneous solid tumor transplants of advanced CD8F, spontaneous breast tumors. In the same experiment (i.e., same tumor transplants), is a group adding 6-AN to PALA and MMPR (MAP, Group 5), as well as a group with MAP administered prior to DDP (Group 6).
Each experiment is from a different brei (i.e., each from a different group of 3-4 spontaneous tumors) and, therefore, each transplant group contained a different number of chemotherapeutically sensitive and/or resistant tumor cells.

Experiment [2] relates to 1st passage tumor transplants of CD8F1 spontaneous breast tumors. Description: Effect of MMPR + 6-AN + PALA on tumor ATP pools in CD8F1 mice. In kind it is in vivo. Set-up: tumor ATP levels 48 hours after treatment, % of normal (saline-treated control tumors) / 6 HR % Saline Control / 24 HR % Saline Control / 48 HR % Saline Control / 72HR % Saline Control / 6 HW % Saline Control: concentration or dose not given beside the values.

The test system of another experiment is mouse lymphoma cells. Conditions: in vitro; cited from earlier work.
The subject of experiment [3] is human soft tissue sarcoma cell lines. Put plainly: Sensitivity of human soft tissue sarcoma cell lines to L-alanosine by MTAP status. In kind it is cell-based. As to conditions: cells lacking MTAP activity. The source says:
An examination of MTAP expression in ten human soft tissue sarcoma cell lines found MTAP not detectable in three of the ten cell lines. These three cell lines were greater than 10-fold more sensitive to L-alanosine than the cell lines containing MTAP. […] In vivo studies of L-alanosine+MMPR, as well as the addition of 6-AN, are being evaluated (82).
An examination of MTAP expression in ten human soft tissue sarcoma cell lines found MTAP not detectable in four of the ten cell lines. These four cell lines were sensitive to L-alanosine.

Take `CSc1ncnc2c1ncn2[C@@H]1O[C@H](CO)[C@@H](O)[C@H]1O` [MMPR, 6-methylmercaptopurine riboside]: the “effect on tumor growth / anticancer activity (in words)” value in experiment [1] (advanced CD8F1 breast tumors in mice) was “tumor growth was inhibited”. Also, in experiment [1] (three pooled published experiments, MMPR, 6-AN, PALA alone and combined, P.R. = 50% or more tumor shrinkage, three courses, 1-week interval), the “partial tumor regression (P.R.) rate” value is reported as “no partial regressions”. The “tumor ATP levels 48 hours after treatment, % of normal (saline-treated control tumors)” value in experiment [2] (48 hours after administration) was determined as 34%. Further, the “tumor ATP level, % of normal” value in experiment [2] (murine breast tumors in vivo, time not stated in the sentence) was 34%. The “6 HW % Saline Control” value in experiment [2] (seventh series copy of Table 1, 6 hr) worked out at 47%. Also, the “24 HR % Saline Control” value in experiment [2] (seventh series copy of Table 1, 24 hr) was determined as 47%; in experiment [2] (tumor ATP 24 hr after i.p. injection, % of saline control), 47%. The “48 HR % Saline Control” value in experiment [2] (seventh series copy of Table 1, 48 hr) amounted to 34%; in experiment [2] (tumor ATP 48 hr after i.p. injection, % of saline control), 34%. For the same compound, the “72HR % Saline Control” value came out at 127% in experiment [2] (seventh series copy of Table 1, 72 hr) and 127% in experiment [2] (tumor ATP 72 hr after i.p. injection, % of saline control). Also, the “6 HR % Saline Control” value in experiment [2] (tumor ATP 6 hr after i.p. injection, % of saline control) was found to be 47%. Further, the “cell growth, % of control” value with mouse lymphoma cells is reported as 25%. The “intracellular tumor cell ATP pool, % of normal (control)” value in the experiment on mouse lymphoma cells was 49%. The “effect of adding MMPR to L-alanosine (in words)” value in experiment [3] is on record as “further enhanced the sensitivity of the cells lacking MTAP activity to L-alanosine”.
